Data on two molecules can be found in BindingDB's records for doi:10.1021/jm800669s (Abbott Laboratories, 2008).

As a reminder, the Ki is a dissociation constant, usually derived from enzyme kinetics or from competition with a known ligand. Lower therefore signals higher affinity.

The assay concerns the target Bcl-2-like protein 1 (Bcl-XL) (Homo sapiens) (UniProt Q07817). Description: Displacement of fluorescein labeled BAD peptide from Bcl-XL by fluorescence polarization assay. Background: Polarisation of emitted light reports the rotation of a fluorescent probe.

Bcl-2-like protein 1 (Bcl-XL) (Homo sapiens), sequence (Q07817 whole entry, looked up): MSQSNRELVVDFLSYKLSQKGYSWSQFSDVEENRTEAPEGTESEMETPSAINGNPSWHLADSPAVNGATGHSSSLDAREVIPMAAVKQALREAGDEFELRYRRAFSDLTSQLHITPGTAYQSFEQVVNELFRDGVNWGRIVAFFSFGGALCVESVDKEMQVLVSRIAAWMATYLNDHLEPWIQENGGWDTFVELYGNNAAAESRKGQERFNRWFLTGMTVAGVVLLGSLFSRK

For `CN(C)CC[C@H](CSc1ccccc1)Nc1ccc(S(=O)(=O)NC(=O)c2ccc(N3CCN(CC4=C(c5ccc(Cl)cc5)CCC(C)(C)C4)CC3)cc2)cc1[N+](=O)[O-]` [(R)-4-(4-((2-(4-Chlorophenyl)-5,5-dimethylcyclohex-1-enyl)methyl)piperazin-1-yl)-N-(4-(4-(dimethylamino)-1-(phenylthio)butan-2-ylamino)-3-nitrophenylsulfonyl)benzamide], the inhibitory constant (Ki) stood at 1.4 nM.
The figure for `CN(C)CC[C@H](CSc1ccccc1)Nc1ccc(S(=O)(=O)NC(=O)c2ccc(N3CCN(Cc4ccccc4-c4ccc(Cl)cc4)CC3)cc2)cc1` [(R)-4-(4-((4'-Chlorobiphenyl-2-yl)methyl)piperazin-1-yl)-N-(4-(4-(dimethylamino)-1-(phenylthio)butan-2-ylamino)phenylsulfonyl)benzamide] is 14 nM.
